Measured values taken from patent US9982017B2, “Synthetic apelin mimetics for the treatment of heart failure” (priority 2012, dated 2018).
*1 amine or outer side, *2 acyl side, *3 side chain or, on linkers, in order; H or OH if unused. Where a SMILES comes first, the peptide text is derived from it. Bridges are numbered along the chain shown (N, C = ends). [ ]: non-standard residue; d: D form. The star is where a group is joined. Palmitoyl = CCCCCCCCCCCCCCCC(=O)*; Cha = N[C@@H](CC1CCCCC1)C(=O)O; pGlu = O=C1CC[C@@H](C(=O)O)N1; CH2COCH2 = O=C(C[*:1])C[*:2]; NHPhenethyl = c1ccc(CCN*)cc1; Nle = CCCC[C@H](N)C(=O)O; AEEA = NCCOCCOCC(=O)O; Inp = O=C(O)C1CCNCC1

Experiments:
[1] = Surrogate Activity-Based Plasma Stability Assay (calcium flux EC50 after incubation with 5% rat plasma); details: not told
[2] = Plasma Stability Assay (LC-MS); format: in vitro ADME; details: male, Sprague-Dawley, heparinized rat plasma, 37° C., Table 3, read-out: Plasma stability t½
Description: • Working solution: 1 mg/mL test article is prepared in Milli-Q water • Extraction solution: Methanol:Acetonitrile:Water (1:1:1) with 0.1% Formic Acid and 400 ng/mL Glyburide. • Plasma: Male Sprague-Dawley rat plasma (with sodium heparin), purchased from Bioreclamation LLC (Liverpool, N.Y.). • Whole blood: Male Sprague Dawley whole blood (with sodium heparin), purchased from Bioreclamation LLC (Liverpool, N.Y.) • Lung homogenate: Male rat Sprague Dawley lung was purchased from Bioreclamation LLC (Liverpool, N.Y.). The lung was homogenized using polytron homogenizer after addition of 5× volume of 1×PBS. The homogenate was centrifuged at 9000 rpm for 10 min at 4° C. The supernatant was centrifuged again at 3000 rpm for 30 min to make a clear supernatant. Protein concentration was determined using a commercial kit (Pierce, Thermo Scientific). Sample Preparation Procedure:
Test article was prepared in one of the following biological matrices: heparinized rat plasma, heparinized rat whole blood or lung homogenate. The plasma and whole blood sample was prepared at 5000 ng/mL by adding 5 uL of 1 mg/mL Working solution to 995 uL of rat plasma or whole blood. Lung homogenate samples were prepared by diluting lung homogenate to 1 mg/ml protein concentration with phosphate buffered saline (PBS), followed by addition of 5 uL Working solution to 995 uL diluted lung homogenate. The samples were incubated at 37° C. with gentle shaking (65˜75 rpm) in a water bath incubator. At times 0 min, 5 min, 15 min, 30 min, 60 min, 120 and 240 min, 25 uL aliquots of incubation samples were transferred to 96-well plate and immediately protein precipitated using 150 uL of Extraction solution. After completion of incubation experiment, the sample plate was centrifuged at 4000 rpm at 4° C. for 10 minutes. Afterwards, a pipetting device (Tecan Temo) was used to tranfer the supernatants to another plate and add 50 uL of water to all samples. The plate was vortexed prior to LC-MS analysis. • LC-MS Analysis of Stability Samples • HPLC: Agilent 1290 HPLC with autosampler • Column: MAC-MOD ACE C18, 3 μm, 30 mm×2.1 mm i.d. • Mobile phase A: 0.1% Formic acid in acetonitrile • Mobile phase B: 0.1% Formic acid in water Gradient Program: […]

in vitro = details: rat, not told
hAPJ = biological target: T1, hAPJ (Homo sapiens, UniProt P35414); assay: hAPJ Calcium Flux Assay; format: cell-based; details: Chem-5 APJ stable cells, FLIPR Calcium 4 dye; read-out: hAPJ Ca^2+ Flux EC50
T1 sequence (P35414 1-380): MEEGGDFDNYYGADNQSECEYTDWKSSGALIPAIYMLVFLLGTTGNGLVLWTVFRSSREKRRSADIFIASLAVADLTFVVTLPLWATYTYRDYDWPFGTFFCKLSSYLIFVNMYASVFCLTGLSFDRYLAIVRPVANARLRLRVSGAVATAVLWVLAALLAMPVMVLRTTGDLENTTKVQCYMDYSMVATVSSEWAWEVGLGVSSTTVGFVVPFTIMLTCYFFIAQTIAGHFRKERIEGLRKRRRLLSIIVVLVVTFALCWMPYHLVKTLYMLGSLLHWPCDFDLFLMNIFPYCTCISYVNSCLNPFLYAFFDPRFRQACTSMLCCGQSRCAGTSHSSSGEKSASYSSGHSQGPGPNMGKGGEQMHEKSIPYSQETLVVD
Description: Chem-5 APJ stable cells (Millipore # HTS068C) were plated in 384-well format with 10,000 cells/well in 25 ul growth media, then grown 24 hours in a 37° C. tissue culture incubator. One hour before the assay, 25 ul/well FLIPR Calcium 4 dye (Molecular Devices R8142) with 2.5 mM probenecid was added, and cells were incubated one hour in a 37° C. tissue culture incubator. Peptides were solubilized in HBSS, HEPES & 0.1% BSA buffer, and serially-diluted 10-fold, from 50 uM to 5 pM, in triplicate. FLIPR Tetra was used to add peptide to the cells with dye (1:5, for final peptide concentrations ranging from 10 uM to 1 pM). FLIPR dye inside the cells emitted fluorescence after binding to calcium, while fluorescence from outside the cells was masked. Fluorescence was measured using 470-495 excitation and 515-575 emission wavelengths on the FLIPR Tetra. Readings were done for 3 minutes total, beginning 10 seconds before the peptide addition. Maximum-minimum values were calculated and plotted for each peptide concentration, and Graph Pad prism software was used to calculate EC50 values at the curve inflection points, for calcium flux stimulation by peptides.

[3] = Surrogate Activity based Plasma stability t½
[4] = Surrogate activity-based Plasma stability t½

| Compound | half-life [1] [h] | half-life at 5000 ng/mL [2] [h] | half-life (in vitro; [3]) [h] | half-life (in vitro; [4]) [h] | EC50 (hAPJ) [nM] |
| --- | --- | --- | --- | --- | --- |
| CCCC[C@@H]1NC(=O)[C@@H]2CCCN2C(=O)CNC(=O)[C@H](CCCCN)NC(=O)[C@@H]2CSSC[C@H](NC(=O)[C@H](CCCNC(=N)N)NC(=O)[C@@H]3CCC(=O)N3)C(=O)N[C@@H](CCCNC(=N)N)C(=O)N[C@@H](CC(C)C)C(=O)N[C@@H](CSSC[C@@H](C(=O)N[C@@H](Cc3ccccc3)C(=O)O)NC1=O)C(=O)N2 [Example 29, pE-R-C-R-L-C-C-K-G-P-Nle-C-F-OH] ([pGlu]RCRLCCKGP[Nle]CF-OH; disulfide 3-7, 6-12) | 3.61 |  |  |  |  |
| CCCC[C@@H]1NC(=O)[C@@H]2CCCN2C(=O)CNC(=O)[C@H](CCCCN)NC(=O)[C@H](Cc2c[nH]cn2)NC(=O)[C@@H](NC(=O)[C@H](CC(C)C)NC(=O)[C@H](CCCNC(=N)N)NC(=O)[C@@H]2CCCN2C(=O)[C@H](CCCNC(=N)N)NC(=O)C2CCNCC2)CSSC[C@@H](C(=O)N[C@@H](Cc2ccccc2)C(=O)O)NC1=O [Example 18, H-Isn-R-P-R-L-C-H-K-G-P-Nle-C-F-OH] (H-[Inp]RPRLCHKGP[Nle]CF-OH; disulfide 6-12) |  | 3.67 | 4.13 | 4.13 |  |
| CCCC[C@@H]1NC(=O)[C@@H]2CCCN2C(=O)CNC(=O)[C@H](CCCCN)NC(=O)[C@H](Cc2cnc[nH]2)NC(=O)[C@@H](NC(=O)[C@H](CC(C)C)NC(=O)[C@H](CCCNC(=N)N)NC(=O)[C@@H]2CCCN2C(=O)[C@H](CCCNC(=N)N)NC(=O)[C@@H]2CCC(=O)N2)CSSC[C@@H](C(=O)N[C@@H](Cc2ccccc2)C(=O)O)NC1=O [Example 8, (S)-2-((3S,6R,11R,14S,17S,25aS)-14-((1H-imidazol-5-yl)methyl)-17-(4-aminobutyl)-3-butyl-11-((S)-2-((S)-5-guanidino-2-((S)-1-((S)-5-guanidino-2-((S)-5-oxopyrrolidine-2-carboxamido)pentanoyl)pyrrolidine-2-carboxamido)pentanamido)-4-methylpentanamido)-1,4,12,15,18,21-hexaoxodocosahydro-1H-pyrrolo[2,1-j][1,2,5,8,11,14,17,20]dithiahexaazacyclotricosine-6-carboxamido)-3-phenylpropanoic acid] ([pGlu]RPRLCHKGP[Nle]CF-OH; disulfide 6-12) |  | 2.72 | 6.78 | 6.78 |  |
| CCCC[C@@H]1NC(=O)[C@@H]2CCCN2C(=O)CNC(=O)[C@H](CCCCN)NC(=O)[C@@H]2CSSC[C@H](NC(=O)[C@@H]3CCCN3C(=O)[C@H](CCCNC(=N)N)NC(=O)[C@@H]3CCC(=O)N3)C(=O)N[C@@H](CC(C)C)C(=O)N[C@@H](CSSC[C@@H](C(=O)N[C@@H](Cc3ccccc3)C(=O)O)NC1=O)C(=O)N2 [Example 28, pE-R-P-C-L-C-C-K-G-P-Nle-C-F-OH] ([pGlu]RPCLCCKGP[Nle]CF-OH; disulfide 4-7, 6-12) | 7.34 |  |  |  |  |
| N=C(N)NCCC[C@H](NC(=O)[C@@H]1CCCN1C(=O)[C@H](CCCNC(=N)N)NC(=O)[C@@H]1CCC(=O)N1)C(=O)N[C@@H](CC1CCCCC1)C(=O)N[C@H]1CSSC[C@@H](C(=O)N[C@@H](Cc2ccccc2)C(=O)O)NC(=O)[C@H](CC2CCCCC2)NC(=O)[C@@H]2CCCN2C(=O)CNC(=O)[C@H](CCCCN)NC(=O)[C@H](Cc2c[nH]cn2)NC1=O [Example 14, pE-R-P-R-Cha-C-H-K-G-P-Cha-C-F-OH] ([pGlu]RPR[Cha]CHKGP[Cha]CF-OH; disulfide 6-12) |  | 1.05 | 1.42 | 1.42 |  |
| CCCC[C@@H]1NC(=O)[C@@H]2CCCN2C(=O)CNC(=O)[C@H](CCCCN)NC(=O)[C@H](Cc2c[nH]cn2)NC(=O)[C@@H](NC(=O)[C@H](CC(C)C)NC(=O)[C@H](CCCNC(=N)N)NC(=O)[C@@H]2CCCN2C(=O)[C@H](CCCNC(=N)N)NC(=O)[C@@H]2CCC(=O)N2)CSSC[C@@H](C(=O)NCCc2ccccc2)NC1=O [Example 12, pE-R-P-R-L-C-H-K-G-P-Nle-C-Phenethylamine] ([pGlu]RPRLCHKGP[Nle]C-NHPhenethyl; disulfide 6-12) |  | 0.898 | 1.6 | 1.56 |  |
| CCCCCCCCCCCCCCCC(=O)NCCOCCOCC(=O)N[C@@H](CCC(N)=O)C(=O)N[C@@H](CCCNC(=N)N)C(=O)N1CCC[C@H]1C(=O)N[C@@H](CCCNC(=N)N)C(=O)N[C@@H](CC(C)C)C(=O)N[C@H]1CSSC[C@@H](C(=O)N[C@@H](Cc2ccccc2)C(=O)O)NC(=O)[C@H](CCCC)NC(=O)[C@@H]2CCCN2C(=O)CNC(=O)[C@H](CCCCN)NC(=O)[C@H](Cc2c[nH]cn2)NC1=O [Example 24, Palmitoyl-O2Oc-Q-R-P-R-L-C-H-K-G-P-Nle-C-F-OH] ({Palmitoyl-AEEA}-QRPRLCHKGP[Nle]CF-OH; disulfide 6-12) |  |  |  | 5.06 | 32.7 |
| CCCC[C@@H]1NC(=O)[C@@H]2CCCN2C(=O)CNC(=O)[C@H](CCCCN)NC(=O)[C@H](Cc2cnc[nH]2)NC(=O)[C@@H](NC(=O)[C@H](CC(C)C)NC(=O)[C@H](CCCNC(=N)N)NC(=O)[C@@H]2CCCN2C(=O)[C@H](CCCNC(=N)N)NC(=O)[C@@H]2CCC(=O)N2)CSCC(=O)CSC[C@@H](C(=O)N[C@@H](Cc2ccccc2)C(=O)O)NC1=O [Example 64, (S)-2-((3S,6R,14R,17S,20S,28aS)-17-((1H-imidazol-5-yl)methyl)-20-(4-aminobutyl)-3-butyl-14-((S)-2-((S)-5-guanidino-2-((S)-1-((S)-5-guanidino-2-((S)-5-oxopyrrolidine-2-carboxamido)pentanoyl)pyrrolidine-2-carboxamido)pentanamido)-4-methylpentanamido)-1,4,10,15,18,21,24-heptaoxohexacosahydropyrrolo[2,1-i][1,23,4,7,10,13,16,19]dithiahexaazacyclohexacosine-6-carboxamido)-3-phenylpropanoic acid] ([pGlu]RPRLCHKGP[Nle]CF-OH; linker 6-12 via CH2COCH2) | 7.58 |  |  |  |  |
| CCCC[C@@H]1NC(=O)[C@@H]2CCCN2C(=O)CNC(=O)[C@H](CCCCN)NC(=O)[C@H](Cc2c[nH]cn2)NC(=O)[C@@H](NC(=O)[C@H](CC(C)C)NC(=O)[C@H](CCCNC(=N)N)NC(=O)[C@@H]2CCCN2C(=O)[C@H](CCCNC(=N)N)NC(=O)[C@@H](N)CCCNC(=N)N)CSSC[C@@H](C(=O)N[C@@H](Cc2ccccc2)C(=O)O)NC1=O [Example 17, H-R-R-P-R-L-C-H-K-G-P-Nle-C-F-OH] (H-RRPRLCHKGP[Nle]CF-OH; disulfide 6-12) |  | 0.0383 | 0.235 | 0.235 |  |
| CCCC[C@@H]1NC(=O)[C@@H]2CCCN2C(=O)CNC(=O)[C@H](CCCCN)NC(=O)[C@H](Cc2c[nH]cn2)NC(=O)[C@@H](NC(=O)[C@H](CC(C)C)NC(=O)[C@H](CCCNC(=N)N)NC(=O)[C@@H]2CCCN2C(=O)[C@@H](N)CCCNC(=N)N)CSSC[C@@H](C(=O)N[C@@H](Cc2ccccc2)C(=O)O)NC1=O [Example 16, H-R-P-R-L-C-H-K-G-P-Nle-C-F-OH] (H-RPRLCHKGP[Nle]CF-OH; disulfide 5-11) |  | 0.17 | 0.223 | 0.223 |  |
| CCCC[C@@H]1NC(=O)[C@@H]2CCCN2C(=O)CNC(=O)[C@H](CCCCN)NC(=O)[C@H](Cc2c[nH]cn2)NC(=O)[C@@H](NC(=O)[C@H](CC(C)C)NC(=O)[C@H](CCCNC(=N)N)NC(=O)[C@@H]2CCCN2C(=O)[C@H](CCCNC(=N)N)NC(=O)[C@@H]2CCC(=O)N2)CSSC[C@@H](C(=O)N[C@H](Cc2ccccc2)C(=O)O)NC1=O [Example 13, pE-R-P-R-L-C-H-K-G-P-Nle-C-f-OH] ([pGlu]RPRLCHKGP[Nle]C[dF]-OH; disulfide 6-12) |  | 3.05 | 4.73 | 4.73 |  |
